The target in one test is T1, RsiGCw+WhiGCw (Conexibacter woesei, UniProt D3EZE5).
T1 construct: gene Cwoe_3492; RsiG and WhiG coexpressed from pCOLADuet-1 in E. coli C41(DE3), His-tag on RsiG cut with thrombin; stoichiometry by analogy with the R. radiotolerans complex
T1 sequence (D3EZE5 1-84): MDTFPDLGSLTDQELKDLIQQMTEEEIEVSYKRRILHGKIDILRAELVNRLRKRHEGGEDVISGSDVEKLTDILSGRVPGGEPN
T1 sequence (UPI0011D1D740 1-268 partner): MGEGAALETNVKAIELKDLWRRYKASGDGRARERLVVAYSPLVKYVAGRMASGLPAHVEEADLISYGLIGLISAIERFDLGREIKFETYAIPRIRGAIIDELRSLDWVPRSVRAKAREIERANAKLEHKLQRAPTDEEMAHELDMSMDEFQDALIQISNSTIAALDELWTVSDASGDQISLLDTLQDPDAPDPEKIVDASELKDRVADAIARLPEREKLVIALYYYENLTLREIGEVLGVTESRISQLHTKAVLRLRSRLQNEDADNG
The test can be described thus: fluorescence polarization. It is filed as binding. The note with it: 25 mM Tris-HCl pH 7.5, 150 mM NaCl, 25 °C, 1 nM probe; RsiG with WhiG; labelled compound. (In general: Polarisation of emitted light reports the rotation of a fluorescent probe.)

In a further test the target is T2, RsiGRr (Rubrobacter radiotolerans, UniProt Z9BF25KB68).
T2 construct: full-length single-motif RsiG, 118 residues (a 27-106 construct was made for apo crystals only); pET15b, E. coli C41(DE3), His-tag cut with thrombin; homodimer
T2 sequence (Z9BF25KB68 1-118): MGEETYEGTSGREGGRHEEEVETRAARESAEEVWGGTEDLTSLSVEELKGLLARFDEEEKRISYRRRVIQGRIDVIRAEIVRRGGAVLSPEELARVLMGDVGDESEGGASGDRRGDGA
The test can be described thus: fluorescence polarization. It counts as binding. The note with it: 25 mM Tris-HCl pH 7.5, 150 mM NaCl, 25 °C, 1 nM probe; RsiG alone; labelled compound.

The target of test [1] is T3, RsiGRr+WhiGRr; Rr (RsiG)2–(c-di-GMP)2–WhiG complex (Rubrobacter radiotolerans, UniProt A0A023X3C8+Z9BF25KB68).
T3 construct: RsiG and WhiG coexpressed from pCOLADuet-1 in E. coli C41(DE3), His-tag on RsiG cut with thrombin; complex of RsiG homodimer and one WhiG
T3 sequence (Z9BF25KB68 1-118): T2 sequence (Z9BF25KB68 1-118)
T3 sequence (A0A023X3C8 1-273): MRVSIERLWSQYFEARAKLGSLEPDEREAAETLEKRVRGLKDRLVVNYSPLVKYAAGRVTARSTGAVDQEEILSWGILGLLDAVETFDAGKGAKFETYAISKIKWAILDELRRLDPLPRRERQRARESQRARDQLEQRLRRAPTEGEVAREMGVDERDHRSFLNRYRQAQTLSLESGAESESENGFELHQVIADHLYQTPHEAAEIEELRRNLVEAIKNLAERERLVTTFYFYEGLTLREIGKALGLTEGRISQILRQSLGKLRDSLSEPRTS
The test can be described thus: fluorescence polarization. It counts as binding. The note with it: 25 mM Tris-HCl pH 7.5, 150 mM NaCl, 25 °C, 1 nM probe; RsiG with WhiG; labelled compound.

For the next test, the target named is T4, RsiGCw (Conexibacter woesei, UniProt D3EZE5).
T4 construct: gene Cwoe_3492; full-length single-motif RsiG; pET15b, E. coli C41(DE3), His-tag cut with thrombin; homodimer (two-hybrid)
T4 sequence (D3EZE5 1-84): T1 sequence (D3EZE5 1-84)
The test can be described thus: fluorescence polarization. It is filed as binding. The note with it: 25 mM Tris-HCl pH 7.5, 150 mM NaCl, 25 °C, 1 nM probe; RsiG alone; labelled compound.

Test [2] has as its target RsiG from Rubrobacter radiotolerans (RsiGRr), co-purified with WhiGRr, His-tag cleaved (Rubrobacter radiotolerans). The test can be described thus: crystal structure; Rr (RsiG)2-(c-di-GMP)2-WhiG complex, 2.93 Å; 0.1 M Tris pH 8.0, 0.2 M MgCl2, 23% PEG 3350; c-di-GMP copurified from E. coli, none added.
The target in test [3] is RsiGRr(27-106) (Rubrobacter radiotolerans). The test can be described thus: crystal structure; apo RsiGRr crystal form 2; 0.1 sodium acetate pH 4.5, 2.5 M NaCl, 0.2 M lithium sulfate, 0.1 M MgCl2; molecular replacement, 2.55 Å.
Test [4] deals with RsiGRr(27-106) (L52M-I69M), selenomethionine substituted (Rubrobacter radiotolerans). The test can be described thus: crystal structure; apo RsiGRr crystal form 1; 0.1 M imidazole pH 8.0, 12% isopropyl alcohol, 0.1 M MgCl2; selenomethionine SAD, 1.86 Å; six molecules in the ASU forming three dimers.

By Kd is commonly meant a measure of binding affinity in units of concentration. Read a low Kd as a tighter complex. As a reminder, the stoichiometry N is a count of units in the complex or per binding partner.

Regarding “2′-O-(6-[Fluoresceinyl]aminohexylcarbamoyl)-cyclic diguanosine monophosphate [2′-Fluo-AHC–c-di-GMP]”, the Kd was 1.7 ± 0.3 µM at RsiGCw+WhiGCw, 12 ± 3 µM at RsiGRr, 0.9 ± 0.05 µM in test [1] and 25 ± 2 µM on RsiGCw.
In test [2], “RsiG from Rubrobacter radiotolerans (RsiGRr), co-purified with WhiGRr, His-tag cleaved (natural protein)” displayed a stoichiometry N of 2.
In the case of RsiGRr(27-106) (domain or fragment), the stoichiometry N in test [3] amounted to 2.
The substance “RsiGRr(27-106) (L52M-I69M), selenomethionine substituted (domain or fragment)” displayed a stoichiometry N in test [4] of 2.

Values taken from paper PMC8325347, “Evolution of a σ–(c-di-GMP)–anti-σ switch” (Proceedings of the National Academy of Sciences of the …, 2021).
